The results in this text go back to ChEMBL document CHEMBL5614367, “Hydroxamic acid hybrids: Histone deacetylase inhibitors with anticancer therapeutic potency” (Eur J Med Chem, 2023).

Data set [1] concerns the target T1, Protein deacetylase HDAC6 (Homo sapiens, UniProt Q9UBN7).
T1 sequence (Q9UBN7 whole entry): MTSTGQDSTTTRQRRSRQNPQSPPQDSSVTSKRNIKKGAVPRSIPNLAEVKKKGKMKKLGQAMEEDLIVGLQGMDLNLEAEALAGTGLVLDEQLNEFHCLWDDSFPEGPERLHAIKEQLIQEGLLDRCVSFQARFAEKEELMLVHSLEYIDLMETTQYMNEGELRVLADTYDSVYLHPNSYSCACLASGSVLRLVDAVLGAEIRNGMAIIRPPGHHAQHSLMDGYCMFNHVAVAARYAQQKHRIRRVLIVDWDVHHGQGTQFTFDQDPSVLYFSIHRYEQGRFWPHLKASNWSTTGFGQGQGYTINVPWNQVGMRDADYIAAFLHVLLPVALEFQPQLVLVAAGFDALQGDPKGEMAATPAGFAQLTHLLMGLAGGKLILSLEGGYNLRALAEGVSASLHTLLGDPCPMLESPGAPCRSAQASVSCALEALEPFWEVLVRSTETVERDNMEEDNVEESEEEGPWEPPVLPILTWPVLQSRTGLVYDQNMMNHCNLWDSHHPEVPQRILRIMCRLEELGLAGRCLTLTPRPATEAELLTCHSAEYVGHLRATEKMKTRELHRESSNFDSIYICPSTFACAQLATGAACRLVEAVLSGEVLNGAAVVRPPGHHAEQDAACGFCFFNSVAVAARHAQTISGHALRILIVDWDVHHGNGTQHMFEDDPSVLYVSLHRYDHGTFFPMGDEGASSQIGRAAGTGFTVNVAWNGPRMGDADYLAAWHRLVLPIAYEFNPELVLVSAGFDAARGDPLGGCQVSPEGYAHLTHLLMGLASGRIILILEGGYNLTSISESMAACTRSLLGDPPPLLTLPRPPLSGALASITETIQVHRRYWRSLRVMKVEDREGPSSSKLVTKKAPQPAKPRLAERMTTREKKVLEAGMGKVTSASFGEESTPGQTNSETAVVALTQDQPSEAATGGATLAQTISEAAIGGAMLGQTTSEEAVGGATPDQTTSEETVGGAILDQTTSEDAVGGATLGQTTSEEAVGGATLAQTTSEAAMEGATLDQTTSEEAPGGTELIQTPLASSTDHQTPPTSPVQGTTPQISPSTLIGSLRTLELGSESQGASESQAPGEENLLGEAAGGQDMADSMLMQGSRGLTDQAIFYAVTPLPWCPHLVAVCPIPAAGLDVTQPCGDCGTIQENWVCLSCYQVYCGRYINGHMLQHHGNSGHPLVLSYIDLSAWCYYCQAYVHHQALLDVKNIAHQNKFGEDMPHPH
Kind of data set: Inhibition of HDAC6 (unknown origin).

Data set [2] has as its system HCT-116. Kind of data set: cells. It is filed as functional, cell-based. Particulars: Homo sapiens, HCT-116, 72 h.
The next data set relates to HCT 116 TP53(-/-). As to the kind of experiment: cells. It counts as functional, cell-based. Particulars: Homo sapiens, 72 h.
The next data set has as its system 518A2. Kind of data set: cells. It counts as functional, cell-based. Particulars: Homo sapiens, 518A2, 72 h.
The next data set has as its system Huh-7. As to the kind of experiment: cells. It is filed as functional, cell-based. Particulars: Homo sapiens, Huh-7, 72 h.
In another data set the test system is HepG2. Kind of data set: cells. It is filed as functional, cell-based. Particulars: Homo sapiens, HepG2, 72 h.
A short description of data set [3]: Cytotoxicity against human HDFa cells assessed as inhibition of cell growth incubated for 72 hrs by MTT assay. It is filed as toxicity, cell-based.
Another data set concerns Jurkat. As to the kind of experiment: Antiproliferative activity against human Jurkat cells. It is filed as functional, cell-based.
The next data set deals with HL-60. Kind of data set: Antiproliferative activity against human HL-60 cells. It counts as functional, cell-based.
Data set [4] is described as follows: Cytotoxicity against HEK293 cells. It is filed as toxicity, cell-based. Particulars: human.
The test system of a further data set is HL60/ADR. Kind of data set: Antiproliferative activity against human HL-60/ADR cells.
Data set [5] is described as follows: Antiproliferative activity against human HL-60/Vinc cells. Particulars: HL60/vinc.
The test system of data set [6] is HCT-116. As to the kind of experiment: cells. Particulars: Homo sapiens.
Description: Antiproliferative activity against human HCT-116 cells
The next data set relates to MCF7. Kind of data set: cells. Particulars: Homo sapiens.
The nature of data set [7]: Metabolic stability in human plasma assessed as half life by LC-MS/MS analysis. It counts as ADME, cell-free.
Data set [8] is described as follows: Metabolic stability in human liver microsomes assessed as half life by LC-MS/MS analysis. It is filed as ADME, Microsome.
In data set [9] the test system is MDA-MB-231. As to the kind of experiment: Antitumor activity against human MDA-MB-231 cells xenografted in BALB/c nude mouse assessed as tumor growth inhibition at 30 mg/kg/day, po measured every 3 days for 22 days relative to control. It counts as functional. Particulars: MDA-MB-231, 528 h, time 22 day, read-out: TGI.
The subject of data set [10] is MDA-MB-231. As to the kind of experiment: Antitumor activity against human MDA-MB-231 cells xenografted in BALB/c nude mouse assessed as tumor growth inhibition by measuring test to control ratio at 30 mg/kg/day, po measured every 3 days for 22 days relative to control. It is filed as functional. Particulars: time 22 day.
The subject of the next data set is K562. Kind of data set: Antiproliferative activity against human K562 cells measured after 72 hrs by CCK-8 assay. It is filed as functional, cell-based. Particulars: K562, 72 h.
The next data set relates to MV4-11. As to the kind of experiment: Antiproliferative activity against human MV4-11 cells measured after 72 hrs by CCK-8 assay. It is filed as functional, cell-based. Particulars: MV4-11, 72 h.
In another data set the test system is HEL. As to the kind of experiment: Antiproliferative activity against human HEL cells measured after 72 hrs by CCK-8 assay. It counts as functional, cell-based.
The test system of another data set is SU-DHL-2. As to the kind of experiment: Antiproliferative activity against human SU-DHL-2 cells measured after 72 hrs by CCK-8 assay. Particulars: SU-DHL-2, 72 h. It is filed as functional, cell-based.
The subject of data set [11] is WSUDLCL2. Kind of data set: Antiproliferative activity against human WSUDLCL2 cells measured after 72 hrs by CCK-8 assay. It is filed as functional, cell-based. Particulars: WSUDLCL2, 72 h.
Data set [12] relates to WSUDLCL2. Kind of data set: Antitumor activity against human WSUDLCL2 cells xenografted in mouse assessed as tumor growth inhibition at 50 mg/kg, ip administered for 21 days. It is filed as functional. Particulars: WSUDLCL2, 504 h, time 21 day, read-out: TGI.
Another data set has as its system A549. As to the kind of experiment: Antiproliferative activity against human A549 cells.
Data set [13] concerns MDA-MB-231. As to the kind of experiment: Antiproliferative activity against human MDA-MB-231 cells.
The target of another data set is Histone deacetylase 2 (Homo sapiens, UniProt Q92769). As to the kind of experiment: Inhibition of HDAC2 (unknown origin).
Histone deacetylase 2, sequence (Q92769 whole entry): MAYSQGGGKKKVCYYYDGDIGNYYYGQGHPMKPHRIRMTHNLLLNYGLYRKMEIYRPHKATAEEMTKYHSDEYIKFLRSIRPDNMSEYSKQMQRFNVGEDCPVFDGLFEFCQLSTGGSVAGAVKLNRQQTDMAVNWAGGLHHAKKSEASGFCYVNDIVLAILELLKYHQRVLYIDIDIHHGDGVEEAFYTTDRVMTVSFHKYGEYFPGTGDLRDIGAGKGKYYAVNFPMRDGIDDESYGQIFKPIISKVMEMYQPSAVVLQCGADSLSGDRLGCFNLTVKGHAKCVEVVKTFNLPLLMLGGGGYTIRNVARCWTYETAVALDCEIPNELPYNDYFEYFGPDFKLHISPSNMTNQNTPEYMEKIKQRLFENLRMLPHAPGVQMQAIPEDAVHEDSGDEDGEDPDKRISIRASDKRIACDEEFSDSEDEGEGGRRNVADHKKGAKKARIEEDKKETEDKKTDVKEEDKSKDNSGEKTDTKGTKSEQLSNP
Another data set concerns HT-29. Kind of data set: Antiproliferative activity against human HT-29 cells. It is filed as functional, cell-based.
Data set [14] can be described thus: Cytotoxicity against human NFF cells. It is filed as toxicity, cell-based.
The subject of another data set is HeLa. As to the kind of experiment: Antiproliferative activity against human HeLa cells. It counts as functional, cell-based.
A further data set concerns MM96L. As to the kind of experiment: Antiproliferative activity against human MM96L cells. It is filed as functional, cell-based.
For data set [15], the target named is Serine/threonine-protein kinase B-raf (Homo sapiens, UniProt P15056). Kind of data set: Inhibition of wild type BRAF (unknown origin).
Serine/threonine-protein kinase B-raf (Homo sapiens, UniProt P15056), sequence (P15056 whole entry): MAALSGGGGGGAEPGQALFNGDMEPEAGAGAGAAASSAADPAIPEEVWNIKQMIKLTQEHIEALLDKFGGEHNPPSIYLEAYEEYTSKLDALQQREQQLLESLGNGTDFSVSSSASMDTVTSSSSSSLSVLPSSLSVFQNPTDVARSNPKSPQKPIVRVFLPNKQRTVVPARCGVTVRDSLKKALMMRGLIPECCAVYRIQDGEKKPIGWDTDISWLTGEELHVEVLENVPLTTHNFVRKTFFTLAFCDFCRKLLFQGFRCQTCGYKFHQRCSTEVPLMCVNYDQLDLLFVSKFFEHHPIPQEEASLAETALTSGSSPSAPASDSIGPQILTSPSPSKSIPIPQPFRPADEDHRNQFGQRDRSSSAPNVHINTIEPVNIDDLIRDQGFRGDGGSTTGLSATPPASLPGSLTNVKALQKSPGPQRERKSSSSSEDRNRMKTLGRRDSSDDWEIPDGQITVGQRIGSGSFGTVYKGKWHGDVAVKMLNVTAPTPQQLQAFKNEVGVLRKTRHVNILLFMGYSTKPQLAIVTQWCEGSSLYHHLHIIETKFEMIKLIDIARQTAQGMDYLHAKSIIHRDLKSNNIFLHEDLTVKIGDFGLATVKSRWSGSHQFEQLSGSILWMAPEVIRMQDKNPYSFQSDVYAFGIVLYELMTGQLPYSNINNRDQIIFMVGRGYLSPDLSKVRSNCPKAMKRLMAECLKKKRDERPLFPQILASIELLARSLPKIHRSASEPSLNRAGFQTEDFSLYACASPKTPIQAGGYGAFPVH
Data set [16] deals with Serine/threonine-protein kinase B-raf (Homo sapiens, UniProt P15056, V600E). Kind of data set: Inhibition of BRAF V600E mutant (unknown origin).
Serine/threonine-protein kinase B-raf (Homo sapiens, UniProt P15056, V600E), sequence (P15056 2-766 V600E limits assumed): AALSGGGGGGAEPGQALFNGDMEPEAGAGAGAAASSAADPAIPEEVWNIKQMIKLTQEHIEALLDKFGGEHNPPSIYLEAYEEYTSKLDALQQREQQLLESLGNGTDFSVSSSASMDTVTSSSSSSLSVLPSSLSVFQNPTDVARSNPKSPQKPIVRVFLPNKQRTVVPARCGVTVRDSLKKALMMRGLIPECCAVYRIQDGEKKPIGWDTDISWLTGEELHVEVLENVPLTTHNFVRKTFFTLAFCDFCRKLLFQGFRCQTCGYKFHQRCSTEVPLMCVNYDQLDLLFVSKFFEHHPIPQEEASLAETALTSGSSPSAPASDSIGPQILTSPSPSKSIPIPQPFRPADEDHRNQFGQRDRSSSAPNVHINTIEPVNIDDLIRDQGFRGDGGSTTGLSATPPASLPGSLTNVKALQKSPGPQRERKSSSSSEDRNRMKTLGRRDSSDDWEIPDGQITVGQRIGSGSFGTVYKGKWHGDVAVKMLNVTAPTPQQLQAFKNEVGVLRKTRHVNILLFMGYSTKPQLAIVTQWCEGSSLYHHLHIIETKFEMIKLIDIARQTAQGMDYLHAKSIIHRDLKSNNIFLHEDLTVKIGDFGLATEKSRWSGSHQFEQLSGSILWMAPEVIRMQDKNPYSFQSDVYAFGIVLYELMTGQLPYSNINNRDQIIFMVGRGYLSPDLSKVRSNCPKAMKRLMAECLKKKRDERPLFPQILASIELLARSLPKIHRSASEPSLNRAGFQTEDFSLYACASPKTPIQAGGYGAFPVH

pIC50: −log10 of the molar value.

Description for MCF7: Antiproliferative activity against human MCF7 cells

For `COc1ccc(-c2ocnc2-c2cc(OC)c(OC)c(OC)c2)cc1OCCCC(=O)NO`, the pIC50 in [1] is roughly 6.00; with HCT-116 [2] it was 6.74; in the data set with HCT 116 TP53(-/-), 6.74; with 518A2, 6.74; with Huh-7, 6.74; with HepG2, 6.74. Moreover, in [3], the IC50 at 72 h is greater than 50 µM.
As for `CN(C)c1nc2c(Br)c(Br)c(Br)c(Br)c2n1CCCCCCCC(=O)NO`, the negative logarithm of the IC50 (pIC50) (with Jurkat; with HL-60; in data set [4]; in the data set with HL60/ADR; in data set [5]; with HCT-116 [6]) was 5.63 in each case. The same molecule had a pIC50 with MCF7 of 5.63.
As to `O=C(CCCCCCC(=O)Nc1nc2ccc(OC(F)(F)F)cc2s1)NO`, the half-life in data set [7] is greater than 120 min; in data set [8], 56 min. In addition, the inhibition in vivo at 30 mg/kg/day with MDA-MB-231 [9] came to 59%. In addition, the T/C with MDA-MB-231 [10] came to 55%.
Regarding `C=C[C@@]1(C)CC[C@H](C(=C)CN2CCN(C(=O)CCCCCCC(=O)NO)CC2)C[C@@H]1C(=C)Cn1cccn1`, the pIC50 in the data set with K562, in the data set with MV4-11, with HEL, in the data set on SU-DHL-2 and with WSUDLCL2 [11] was 6.10 throughout. The inhibition in vivo at 50 mg/kg in the data set with WSUDLCL2 [12] is 31.5%.
Consider `O=C(NO)c1ccc(NC(=O)C2(c3ccc(-c4cn[nH]c4)cc3)CCCCC2)cc1`, for which the pIC50 in the data set with A549 was 7.30; in the data set with MDA-MB-231 [13], 7.30; against Histone deacetylase 2, 8.70; in the data set on HT-29 it was 7.30; in data set [14], 7.30; in the data set with HeLa it was 7.30. The pIC50 with MM96L is 7.30.
Consider `O=C(CCCCCCNc1nccc(-c2sc(-c3ccccc3)nc2-c2cccc(NS(=O)(=O)c3c(F)cccc3F)c2F)n1)NO`, for which the pIC50 is 7.81 in [1], 8.77 in [15], 8.77 in [16] and 6.51 in the data set with HCT-116 [6].
